Tests used:
NMDAR [1] = assay: ICV Aβ42 infusion mouse model: NMDAR signaling molecules; type: in vivo; details: 10 mg/kg twice daily
Protocol: NMDAR signaling and their interaction with synaptic anchoring protein, PSD-95 were compared in synaptosomes from treated mice. NMDAR activation and signaling was initiated by incubation of 6 slices with either 0.3 mM Mg^2+ containing KR (LMKR; basal) or LMKR containing 10 μM NMDA and 1 μM glycine at 37° C. for 30 minutes.
Ligand stimulation was terminated by the addition of 1 ml of ice-cold Ca^2+-free K-R containing mixture of protein phosphatase inhibitors, 0.5 mM EGTA and 0.1 mM EDTA. After harvesting, tissues were briefly centrifuged and homogenized in 0.25 ml of ice-cold immunoprecipitation buffer. The homogenates were centrifuged at 1000×g for 5 minutes (4° C.) and the supernatant (post-mitochondrial fraction) was sonicated for 10 seconds on ice.
The resultant lysates were cleared by centrifugation at 50,000×g for 5 minutes and diluted with 0.75 ml of immunoprecipitation buffer. Protein concentrations were measured by Bradford method (Bio-Rad).
To determine the NMDARs association with PSD-95 as well as NMDAR signaling, the levels of NMDAR subunits, PSD-95 and NMDAR-associated signaling molecules were measured in anti-NR1 immunoprecipitates. In these studies, brain tissue lysates (100 μg) were immunoprecipitated overnight (about 18 hours) at 4° C. with 2 μg of immobilized anti-NR1 onto covalently conjugated protein A-agarose beads (Pierce-ENDOGEN). […]

[2] = system: voltage-gated Ca2+ channel mediated Ca2+ influx; type: in vivo, mouse; details: 10 mg/kg twice daily
[3] = system: voltage-gated Ca2+ channel mediated Ca2+ influx; type: cell-based, rat; details: slice cultures
NMDAR [4] = assay: Postmortem human frontal cortex: NMDAR signaling and association with PSD-95; type: cell-based; details: AD brain slices, 1 nM, one hour incubation
Protocol: NMDAR activation and signaling were initiated by incubation of approximately 10 mg of in vitro treated brain slices with either LMKR (basal) or LMKR containing 10 μM NMDA and 1 μM glycine at 37° C. for 30 minutes. […] Ligand stimulation was terminated by the addition of 1 ml of ice-cold Ca^2+-free K-R containing 0.5 mM EGTA and 0.1 mM EDTA.
Brain slices were harvested by a brief centrifugation and were homogenized in 0.25 ml of ice-cold immunoprecipitation buffer. The homogenates were centrifuged at 1000×g for 5 minutes (4° C.) and the supernatant (post-mitochondrial fraction) is sonicated for 10 seconds on ice. […] The resultant lysates are then cleared by centrifugation at 50,000×g for 5 minutes and diluted with 0.75 ml of immunoprecipitation buffer. Protein concentrations are measured by Bradford method (Bio-Rad).
To determine the NMDAR signaling and the NMDAR complexes association with PSD-95 [also known as Disks large homolog 4 (DLH4)], the levels of NMDAR subunits, PSD-95 and NMDAR-associated signaling molecules were measured in anti-NR1 immunoprecipitates.
In these studies, brain slice lysates (200 μg) were immunoprecipitated overnight (about 18 hours) at 4° C. with 2 μg of immobilized anti-NR1 onto covalently conjugated protein A-agarose beads (Pierce-ENDOGEN). […]

[5] = system: α7nAChR (Aβ42-α7nAChR interaction); assay: Aβ42 affinity for α7nAChR in SK-N-MC cells; type: binding, human
TLR4-FLNA complex [6] = target: T1, TLR4-FLNA complex (Mus musculus, UniProt Q8BTM8); assay: ICV Aβ42 infusion mouse model: FLNA association with TLR4; type: in vivo; details: 10 mg/kg twice daily; prefrontal cortex and hippocampus
T1 construct: from tissue; host or cells: synaptosomes from prefrontal cortex and hippocampus of treated E129 mice
T1 sequence (Q8BTM8 2-2647, one chain of several): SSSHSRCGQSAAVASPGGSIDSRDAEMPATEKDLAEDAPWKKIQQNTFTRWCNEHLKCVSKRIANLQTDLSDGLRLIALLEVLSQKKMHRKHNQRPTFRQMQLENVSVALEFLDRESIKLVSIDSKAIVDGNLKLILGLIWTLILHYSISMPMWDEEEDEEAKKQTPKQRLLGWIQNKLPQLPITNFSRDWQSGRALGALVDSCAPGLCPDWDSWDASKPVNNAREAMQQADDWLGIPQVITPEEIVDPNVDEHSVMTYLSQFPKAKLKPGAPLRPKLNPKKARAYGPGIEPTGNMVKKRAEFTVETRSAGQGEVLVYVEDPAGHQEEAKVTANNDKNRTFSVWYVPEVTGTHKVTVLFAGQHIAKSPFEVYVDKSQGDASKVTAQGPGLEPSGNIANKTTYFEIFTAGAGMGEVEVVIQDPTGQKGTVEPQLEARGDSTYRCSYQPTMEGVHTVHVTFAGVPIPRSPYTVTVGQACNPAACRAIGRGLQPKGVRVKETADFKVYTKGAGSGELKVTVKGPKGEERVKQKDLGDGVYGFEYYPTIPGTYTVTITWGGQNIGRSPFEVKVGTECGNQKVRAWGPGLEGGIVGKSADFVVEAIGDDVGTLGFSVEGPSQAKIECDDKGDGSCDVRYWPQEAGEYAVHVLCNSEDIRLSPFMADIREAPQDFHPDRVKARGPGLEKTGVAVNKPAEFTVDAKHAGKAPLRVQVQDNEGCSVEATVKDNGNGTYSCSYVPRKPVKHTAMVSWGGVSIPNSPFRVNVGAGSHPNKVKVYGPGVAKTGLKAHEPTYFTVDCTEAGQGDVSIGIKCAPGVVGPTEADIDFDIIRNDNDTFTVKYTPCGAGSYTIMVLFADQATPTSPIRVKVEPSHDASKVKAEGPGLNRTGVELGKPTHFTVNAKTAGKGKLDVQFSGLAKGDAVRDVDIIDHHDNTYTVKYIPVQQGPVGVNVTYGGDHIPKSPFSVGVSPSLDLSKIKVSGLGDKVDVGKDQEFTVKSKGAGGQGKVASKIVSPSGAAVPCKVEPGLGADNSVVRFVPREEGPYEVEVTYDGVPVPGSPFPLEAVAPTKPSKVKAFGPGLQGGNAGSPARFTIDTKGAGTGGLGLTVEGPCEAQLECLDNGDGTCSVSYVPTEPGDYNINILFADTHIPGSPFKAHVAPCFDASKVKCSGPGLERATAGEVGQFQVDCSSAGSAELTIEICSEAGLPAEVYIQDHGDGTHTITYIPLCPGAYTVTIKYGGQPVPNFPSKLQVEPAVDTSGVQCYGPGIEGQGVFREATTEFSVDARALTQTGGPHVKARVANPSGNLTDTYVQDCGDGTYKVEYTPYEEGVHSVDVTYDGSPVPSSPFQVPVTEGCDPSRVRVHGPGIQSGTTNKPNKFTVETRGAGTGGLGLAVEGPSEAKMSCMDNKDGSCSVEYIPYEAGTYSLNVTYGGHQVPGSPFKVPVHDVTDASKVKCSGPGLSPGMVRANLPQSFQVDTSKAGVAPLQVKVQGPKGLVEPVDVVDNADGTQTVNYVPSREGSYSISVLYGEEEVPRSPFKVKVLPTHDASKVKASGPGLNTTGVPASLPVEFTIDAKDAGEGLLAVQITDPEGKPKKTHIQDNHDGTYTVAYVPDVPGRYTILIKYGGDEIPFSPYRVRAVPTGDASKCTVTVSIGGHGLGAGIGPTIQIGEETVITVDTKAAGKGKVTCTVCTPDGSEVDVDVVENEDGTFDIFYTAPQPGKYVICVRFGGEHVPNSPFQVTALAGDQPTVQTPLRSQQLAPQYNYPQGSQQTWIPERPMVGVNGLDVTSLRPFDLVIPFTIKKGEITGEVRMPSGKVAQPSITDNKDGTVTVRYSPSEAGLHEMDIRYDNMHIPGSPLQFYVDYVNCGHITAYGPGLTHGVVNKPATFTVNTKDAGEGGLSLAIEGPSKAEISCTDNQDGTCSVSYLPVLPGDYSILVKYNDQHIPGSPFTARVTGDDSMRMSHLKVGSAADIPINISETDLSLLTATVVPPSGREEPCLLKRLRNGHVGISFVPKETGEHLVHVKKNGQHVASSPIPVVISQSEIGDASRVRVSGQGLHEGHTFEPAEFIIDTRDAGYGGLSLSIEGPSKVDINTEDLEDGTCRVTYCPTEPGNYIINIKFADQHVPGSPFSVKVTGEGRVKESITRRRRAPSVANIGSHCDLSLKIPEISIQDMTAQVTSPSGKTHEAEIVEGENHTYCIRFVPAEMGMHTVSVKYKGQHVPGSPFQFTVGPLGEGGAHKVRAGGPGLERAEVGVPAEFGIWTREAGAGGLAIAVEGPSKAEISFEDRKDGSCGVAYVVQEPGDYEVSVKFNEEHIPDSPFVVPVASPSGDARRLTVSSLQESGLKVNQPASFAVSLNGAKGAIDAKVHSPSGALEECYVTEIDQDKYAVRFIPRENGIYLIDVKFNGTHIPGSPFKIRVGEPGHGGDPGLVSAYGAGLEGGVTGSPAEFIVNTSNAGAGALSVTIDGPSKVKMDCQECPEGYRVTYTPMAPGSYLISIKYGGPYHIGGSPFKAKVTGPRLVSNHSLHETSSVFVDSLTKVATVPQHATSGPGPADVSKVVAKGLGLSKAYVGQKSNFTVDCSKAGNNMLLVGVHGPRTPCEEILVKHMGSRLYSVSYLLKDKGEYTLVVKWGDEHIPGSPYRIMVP
Protocol: (§1) . The anti-FLNA immunocomplexes were obtained by centrifugation, washed and dissociated using antigen elution buffer. […] The levels of FLNA-associated α7nAChRs and TLR4s were assessed by Western blotting and the blot stripped and re-probed for FLNA for immunoprecipitation/loading control.

[7] = system: α7nAChR (Aβ42-α7nAChR interaction); assay: Aβ42 affinity for α7nAChR in biotinylated synaptic membranes from postmortem frontal cortices; type: binding, human
From the text: FIG. 27 in two panels illustrates that Compound C0105 reduces affinity of the Aβ42-α7nAChR interaction. […] Data are means±SEM. n=11 for postmortem control tissue; n=6 for SK-N-MC cells.

TLR4-FLNA complex [8] = target: T2, TLR4-FLNA complex (Homo sapiens, UniProt P21333); assay: Postmortem human frontal cortex: TLR4-FLNA association; type: cell-based; details: AD and Aβ42-treated control tissue; 0.1 or 1 nM
T2 construct: from tissue; host or cells: postmortem frontal cortex slices / synaptosomes (AD and control subjects)
Protocol: Postmortem frontal cortex tissues were gradually thawed (from −80° C. to −20° C.) and were sliced using a chilled McIlwain tissue chopper (200 μm×200 μm×3 mm). […] Following two additional washes with 1 ml of ice-cold K-R, brain slices were suspended in 1 ml of K-R.
Incubation continued for 1 hour in the dark to minimize light destruction of the test agents. […] Reaction was terminated by the addition of 1.5 ml of ice-cold Ca^2+-free K-R. Tissue slices were harvested by a brief centrifugation and used as the tissue sources for various assays.

[9] = system: tau (pSer202, pThr231, pThr181); assay: ICV Aβ42 infusion mouse model: tau phosphorylation; type: in vivo; details: 10 mg/kg twice daily
Protocol: The levels of phosphorylated tau (pSer202tau, pThr231tau and pThr181tau) as well as total tau precipitated (loading controls) were assessed by Western blotting using specific antibodies directed against each of the phosphoepitopes and the anti-tau, respectively.

α7nAChR = type: cell-based, rat
α7nAChR-FLNA complex = target: T3, α7nAChR-FLNA complex (Mus musculus, UniProt Q8BTM8); assay: ICV Aβ42 infusion mouse model: FLNA association with α7nAChR; type: in vivo; details: 10 mg/kg twice daily; prefrontal cortex and hippocampus
T3 construct: from tissue; host or cells: synaptosomes from prefrontal cortex and hippocampus of treated E129 mice
T3 sequence (Q8BTM8 2-2647, one chain of several): as above
Protocol: as §1

insulin receptor (IR) = assay: ICV Aβ42 infusion mouse model: IR signaling; type: in vivo; details: 10 mg/kg twice daily
Protocol: IR activation and signaling was initiated by incubation of tissue with either K-R (basal) or K—R containing 1 nM insulin at 37° C. for 30 minutes. […] Ligand stimulation was terminated by the addition of 1 ml of ice-cold Ca^2+-free K-R containing mixture of protein phosphatase inhibitors, 0.5 mM EGTA and 0.1 mM EDTA.
Tissues were briefly centrifuged and homogenized in 0.25 ml of ice-cold immunoprecipitation buffer. The homogenates were centrifuged at 1000×g for 5 minutes (4° C.) and the supernatant (post-mitochondrial fraction) was sonicated for 10 seconds on ice. […] The resultant lysates were then cleared by centrifugation at 50,000×g for 5 minutes and diluted with 0.75 ml of immunoprecipitation buffer. Protein concentrations were measured by Bradford method (Bio-Rad).
In these studies, brain tissue lysates (100 μg) were immunoprecipitated overnight (about 18 hours) at 4° C. with 2 μg of immobilized anti-IRβ onto covalently conjugated protein A-agarose beads (Pierce-ENDOGEN).
Anti-IRβ immunoprecipitates were incubated with 75 μl antigen elution buffer (Pierce-ENDOGEN) and 2% SDS for 2 minutes on ice, centrifuged to remove antibody-protein A-agarose complexes and neutralized immediately with 10 μl 1.5 M Tris buffer, pH 8.8 followed by addition of 65 μl 2× PAGE sample buffer and boiled for 5 minutes. […]

[10] = target: FLNA pentamer VAKGL of SEQ ID NO: 1 (Homo sapiens, UniProt P21333); assay: [3H]NLX displacement from biotinylated VAKGL peptide; details: Bn-VAKGL peptide; single IC50; N=4; read-out: IC50, inhibition of [3H]NLX binding
Protocol: Nonspecific binding was defined by 1 mM NTX. The reaction was terminated by addition of 1 ml of ice-cold binding medium. The [^3H]NLX-bound Bn-VAKGL was trapped by incubation with […] NeutrAvidin®-agarose (Thermo), followed by centrifugation. Following two 1.5 ml washes with PBS, the bound [^3H]NLX was determined using scintillation spectrometry. […] N=4.

[11] = system: tau phosphorylated at S202, T231 and T181; assay: Postmortem human frontal cortical synaptosomes: Aβ42-induced tau phosphorylation with VAKGL decoy; type: cell-based; details: postmortem control frontocortical tissue
Protocol: FIG. 34 VAKGL (SEQ ID NO: 1) pentapeptide (10 μM) blocks Compound C0105's prevention of tau phosphorylation. Again using postmortem frontal cortical synaptosomes, the VAKGL pentapeptide blocks C0105's reduction in tau phosphorylation at all three phosphorylation sites found in neurofibrillary tangles. Western blots (FIG. 34A), in which numerals outside of and to the left of the blots are as discussed before, were analyzed by densitometric quantitation (FIG. 34B). Data are means±SEM. n=3. *p<0.01 vs. the respective basal level; # p<0.01 vs. Aβ42-exposed tissues.
In postmortem control frontocortical tissue, the FLNA pentapeptide binding site of Compound C0105 (VAKGL of SEQ ID NO: 1) was used as a decoy to block the attenuation of FLNA association with α7nAChR and TLR4 by Compound C0105 (FIG. 33).

CN1CCC2(CC1)NCC(=O)N2Cc1ccccc1 [Compound C0105]
Levels of NMDAR signaling molecules co-immunoprecipitating with NR-1 (NMDAR [1]): normalized
K+-evoked calcium influx [2]: restored it
Aβ42-induced reduction of K+-evoked calcium influx [3]: completely reversed by 1 and 10 nM
NMDAR signaling impairment (six measures) (NMDAR [4]): normalized all six measures
Reduction of Aβ42 binding affinity for α7nAChR ([5]; fresh SK-N-MC cells, n=6): 10,000 fold
Kd ([5]; read-out: Aβ42 binding affinity for α7nAChR with Compound C0105, SK-N-MC cells): 1 nM
Aβ42-induced increase in FLNA association with TLR4 (TLR4-FLNA complex [6]): reduced Aβ42-induced increases in FLNA associations with both α7nAChR and TLR4
Reduction of affinity of the Aβ42-α7nAChR interaction ([7]; FIG. 27: postmortem tissue and SK-N-MC cells): 1,000-10,000 fold
Reduction of Aβ42 binding affinity for α7nAChR ([7]; postmortem control tissue, biotinylated synaptic membranes, n=11): 1000 fold
Kd ([7]; read-out: Aβ42 binding affinity for α7nAChR after Compound C0105 incubation, postmortem control tissue): 16 nM
FLNA association with TLR4 (TLR4-FLNA complex [8]): reduces Aβ42-induced FLNA association with α7nAChR and TLR4
Tau phosphorylation at three sites [9]: suppressed tau phosphorylation at all three phosphorylation sites
Aβ42-induced impairment in α7nAChR function (calcium influx after PNU282987) (α7nAChR): fully restoring function
Aβ42-induced increase in FLNA association with α7nAChR (α7nAChR-FLNA complex): reduced Aβ42-induced increases in FLNA associations with both α7nAChR and TLR4
IR signaling (IRβ phosphorylation, IRS-1 association) (insulin receptor (IR)): restored
IC50 [10]: 0.00276 nM
Aβ42-induced tau phosphorylation [11]: inhibits tau phosphorylation
